From the supplement of paper PMC4858399
Counter-ions that a name gives are not always drawn.

What was measured:
Details in all cases: exposure time 48 h
[1] = test system: Caenorhabditis elegans N2; assay: mean nematode size ln(EXT) after 48 h, plate-adjusted (DMSO control set to 6) (ln(EXT), control-adjusted); higher = larger nematodes / less growth inhibition
How it was run: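 In K-medium with killed OP50, 1% DMSO and 0.5–200 µM chemical, synchronised N2 L1 larvae of C. elegans (50 per well) grew for 48 h at 20°C. Extinction was read for every worm on the Biosort, with debris removed by a growth model. Natural-log values averaged per well gave mean size, which was corrected per plate by subtracting the vehicle control mean and adding 6.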

[2] = test system: Caenorhabditis elegans N2; assay: AC50 for larval growth inhibition (Hill fit); higher = less potent
How it was run: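 Synchronised C. elegans N2 L1 larvae, 50 per well in 96-well plates, were grown at 20°C for 48 h in K-medium with killed OP50, 1% DMSO and 0.5–200 µM chemical. Worm size was read on a COPAS Biosort as extinction, log-transformed and averaged per well, and only wells holding at least 10 worms were kept. AC50 was obtained by a constrained Hill fit using weighted genetic-algorithm regression, with out-of-range values censored.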

[3] = test system: Caenorhabditis elegans N2; assay: lowest effective concentration for larval growth inhibition (size below effect threshold); higher = less potent
How it was run: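 L1 larvae of C. elegans N2 (50 per 96-well) were grown in K-medium with killed bacteria and 1% DMSO, with the chemical at 0.5, 1, 5, 10, 50, 100 or 200 µM, for 48 h at 20°C. Per-worm extinction from the Biosort stood for size and was log-transformed into well means. For each chemical, the lowest effective concentration is the first dose where plate-adjusted mean size falls under the threshold and stays under it at the higher doses, using a threshold of 5.665.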

SMILES	mean nematode size ln(EXT) (ln) ([1]; 0.5 µM)	mean nematode size ln(EXT) (ln) ([1]; 1 µM)	mean nematode size ln(EXT) (ln) ([1]; 5 µM)	mean nematode size ln(EXT) (ln) ([1]; 10 µM)	mean nematode size ln(EXT) (ln) ([1]; 50 µM)	mean nematode size ln(EXT) (ln) ([1]; 100 µM)	mean nematode size ln(EXT) (ln) ([1]; 200 µM)	AC50 for larval growth inhibition [2] [µM]	lowest effective concentration [3] [µM]
COCCOCCOCCOC [Triethylene glycol dimethyl ether]	5.75	6.01	5.91	5.91	5.72	5.81	5.64	> 200	200
O=C(O)C(F)(F)C(F)(F)C(F)(F)C(F)(F)C(F)(F)C(F)(F)C(F)(F)F [Pentadecafluorooctanoic acid ammonium salt]	5.88	5.86	5.85	5.84	5.83	5.68	5.43	> 200	200
[N-]=[N+]=[N-] [Sodium azide]	5.79	5.92	5.83	5.76	5.63	5.45	5.49	> 200	50
c1ccc2cc3ccccc3cc2c1 [Anthracene]	5.97	5.76	4.34	3.78	4.06	4.36	4.12	2.12	5
OCCC(F)(F)C(F)(F)C(F)(F)C(F)(F)C(F)(F)C(F)(F)C(F)(F)C(F)(F)F [1,1,2,2-Tetrahydroperfluoro-1-decanol]	5.86	5.67	5.72	5.62	5.54	5.37	4.6	> 200	10
CCOC(=O)COc1cc(-n2ncc(C(F)(F)F)c(C)c2=O)c(F)cc1Cl [Flufenpyr-ethyl]	5.85	5.76	5.8	5.87	5.88	5.91	5.57	> 200	200
CC(CO)OC(C)CO.CC(O)COCC(C)O (stereo not given) [Dipropylene glycol]	5.74	5.73	5.79	5.87	5.74	5.66	5.87		> 200
Cc1c(-c2cccnc2)c2ccccc2n1CCCCC(=O)O [5-[2-methyl-3-(pyridin-3-yl)-1H-indol-1-yl]pentanoic acid]	5.93	5.89	5.78	5.84	5.83	5.87	5.7		> 200
c1nc[nH]n1 [1H-1,2,4-Triazole]	6.09	6.11	6	6.04	6.04	6.02	5.74		> 200
COC(=O)c1ccc(I)cc1S(=O)(=O)NC(=O)Nc1nc(C)nc(OC)n1 [Iodosulfuron-methyl-sodium]	6.1	6.11	5.88	6.04	6.15	6.07	5.89		> 200
Cc1ccc(N)cc1O [5-Amino-o-cresol]	5.44	5.57	5.55	5.6	5.74	5.75	5.8		> 200
OC[C@H]1O[C@@H]2O[C@H]3[C@H](O)[C@@H](O)[C@@H](O[C@H]4[C@H](O)[C@@H](O)[C@@H](O[C@H]5[C@H](O)[C@@H](O)[C@@H](O[C@H]6[C@H](O)[C@@H](O)[C@@H](O[C@H]7[C@H](O)[C@@H](O)[C@@H](O[C@H]1[C@H](O)[C@H]2O)O[C@@H]7CO)O[C@@H]6CO)O[C@@H]5CO)O[C@@H]4CO)O[C@@H]3CO [alpha-Cyclodextrin]	5.83	5.83	5.77	5.87	5.88	5.82	5.74		> 200
Cc1cn([C@H]2C=C[C@@H](CO)O2)c(=O)[nH]c1=O [Stavudine]	5.47	5.53	5.6	5.67	5.69	5.7	5.93		> 200
CCO[Si](CCCNC(N)=O)(OCC)OCC [3-Ureidopropyltriethoxysilane]	5.84	5.83	5.84	5.8	5.74	5.63	5.84		> 200
Cc1cc(-c2ccc(N)c(C)c2)ccc1N [o-Tolidine]	5.82	5.91	5.9	5.97	5.85	5.84	5.86		> 200
C#CCN1C(=O)COc2cc(F)c(N3C(=O)C4=C(CCCC4)C3=O)cc21 [Flumioxazin]	5.98	5.91	5.92	5.99	5.98	5.87	6		> 200
c1ccc(OP(Oc2ccccc2)Oc2ccccc2)cc1 [Triphenyl phosphite]	5.86	5.75	5.77	5.81	5.75	5.95	5.72		> 200
COC(=O)CCC(=O)OC [Dimethyl succinate]	5.88	5.94	5.85	6.11	5.84	5.87	5.96		> 200
CCCCCCCCCCCCCCC [Pentadecane]	5.88	5.95	5.94	6.03	5.95	5.87	5.74		> 200
Cc1ccn2nc(S(=O)(=O)Nc3c(F)cccc3F)nc2n1 [Flumetsulam]	5.91	5.95	6.03	6.05	5.93	6.02	5.88		> 200
CNC(=O)/C=C(\C)OP(=O)(OC)OC [Monocrotophos]	5.81	5.76	5.74	5.78	5.79	5.77	6.07		> 200
CCC(C)(CC)c1cc(NC(=O)c2c(OC)cccc2OC)on1 [Isoxaben]	5.88	5.93	6.01	6.02	5.92	6.03	5.93		> 200
Oc1ccccc1Cl [2-Chlorophenol]	5.99	5.99	6.06	6.11	6.21	6.13	5.71		> 200
